In ChEMBL document CHEMBL4419121, “Tetrahydropyridopyrazines modulators of gpr6” (2018):

Columns and labels:
[1] = molecular target: T1, G-protein coupled receptor 6 (Homo sapiens, UniProt P46095); experiment: Modulation activity at GPR6 receptor (unknown origin) expressed in CHO-K1 cells assessed as inhibition of constitutive cAMP activity incubated for 45 mins in presence of 300 uM IBMX by Perkin Elmer Lance HTRF Ultrac-AMP assay; assay type: functional, cell-based; settings: cho-k1
Rattus norvegicus = experiment: Reversal of haloperidol-induced catalepsy in Sprague-Dawley rat model of Parkinson's disease assessed as reduction in catalepsy intensity index at 0.1 mg/kg, ip dosed along with haloperidol and measured after 30 mins relative to untreated control; assay type: functional; parameters: scale not given: the % may be the effect or the level left
[2] = molecular target: T1, G-protein coupled receptor 6; experiment: Modulation activity at GPR6 receptor (unknown origin) expressed in CHO-K1 cells assessed as inhibition of constitutive cAMP activity incubated for 45 mins by Perkin Elmer Lance HTRF Ultrac-AMP assay; assay type: functional, cell-based

T1 sequence (P46095 whole entry): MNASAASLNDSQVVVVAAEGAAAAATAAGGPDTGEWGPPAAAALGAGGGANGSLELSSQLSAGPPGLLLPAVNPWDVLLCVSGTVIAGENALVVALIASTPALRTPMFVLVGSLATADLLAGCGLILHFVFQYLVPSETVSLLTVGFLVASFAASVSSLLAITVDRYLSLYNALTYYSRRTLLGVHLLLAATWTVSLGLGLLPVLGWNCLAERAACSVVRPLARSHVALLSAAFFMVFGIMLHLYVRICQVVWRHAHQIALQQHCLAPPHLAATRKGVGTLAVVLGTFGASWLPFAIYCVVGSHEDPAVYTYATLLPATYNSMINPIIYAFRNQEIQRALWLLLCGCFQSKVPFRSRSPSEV

Compound | IC50 [2] [nM] | further results
CC(=O)N1CCc2nc(N3CCC(Oc4ccc(F)cc4F)CC3)c(NC(C)C)nc2C1 | – | IC50 [1]: 24.6 nM; Activity (Rattus norvegicus): -5.7%
CO[C@@H](C)C(=O)N1Cc2nc(N3CCC(Oc4ccc(F)cc4F)CC3)c(NCC(F)F)nc2CC1C (some centres not stated) | 20.9 | –
CC(C)Nc1nc2c(nc1N1CCC(Oc3ccc(F)cc3F)CC1)CCN(C(=O)N1CCOCC1)C2 | 62.6 | –
CC(C)Nc1nc2c(nc1N1CCC(Oc3ccc(F)cc3F)CC1)C(C)N(S(C)(=O)=O)CC2 (configuration not stated) | 98 | –
CN1CCc2nc(NC3CC3)c(N3CCC([C@@H](F)c4ccc(F)cc4F)CC3)nc2C1 | 26.5 | –
CC(=O)N1CCc2nc(NC(C)C)c(N3CCC(Oc4ccc(F)cc4F)CC3)nc2C1C (configuration not stated) | 88 | –
CC(C)Nc1nc2c(nc1N1CCC(Oc3ccc(F)cc3F)CC1)CN(C(=O)CC#N)CC2 | 18 | –
CC(C)Nc1nc2c(nc1N1CCC(C(=O)c3cc(Cl)ccc3F)CC1)CN(C(=O)N(C)C)CC2 | 24.9 | –
COCC(=O)N1CCc2nc(NC(C)C)c(N3CCC(Oc4ccc(F)cc4F)CC3)nc2C1 | 17.3 | –
CO[C@H](C)C(=O)N1CCc2nc(N3CCC(Oc4ccc(F)cc4F)CC3)c(NCC(F)F)nc2C1 | 64 | –
CC(=O)N1CCc2nc(NC(C)C)c(N3CCC(C(F)c4ccc(F)cc4F)CC3)nc2C1 (configuration not stated) | 8.5 | –
CC(C)Nc1nc2c(nc1N1CCC(Oc3ccc(C#N)cc3F)CC1)CN(C(=O)C1CC1)CC2 | 122 | –
CC1Cc2nc(NCC(F)F)c(N3CCC(Oc4ccc(F)cc4F)CC3)nc2CN1C(=O)C1CC1 (configuration not stated) | 23.9 | –
COCC(=O)N1CCc2nc(NC(C)C)c(N3CCC(Oc4ccc(F)cc4F)CC3)nc2C1C (configuration not stated) | 91 | –
CC(=O)N1CCc2nc(N3CCC(Oc4ccc(F)cc4F)CC3)c(NCC(F)F)nc2C1C (configuration not stated) | 178 | –
CC(C)Nc1nc2c(nc1N1CCC(C(=O)c3cc(Cl)ccc3F)CC1)CN(C)CC2 | 8.8 | –
CS(=O)(=O)N1CCc2nc(N3CCC(Oc4ccc(F)cc4F)CC3)c(NCC(F)F)nc2C1 | 57.2 | –
CC1c2nc(N3CCC(Oc4ccc(F)cc4F)CC3)c(NCC(F)F)nc2CCN1C(=O)C1CC1 (configuration not stated) | 126 | –
CC(C)Nc1nc2c(nc1N1CCC(Oc3ccc(F)cc3F)CC1)CCN(C(=O)c1ccno1)C2 | 38.7 | –
COCC(=O)N1CCc2nc(N3CCC(Oc4ccc(F)cc4F)CC3)c(NCC(F)F)nc2C1C (configuration not stated) | 208 | –
CC(=O)N1CCc2nc(NCC(F)F)c(N3CCC(Oc4ccc(F)cc4F)CC3)nc2C1C (configuration not stated) | 76 | –
CC1Cc2nc(NCC(F)F)c(N3CCC(Oc4ccc(F)cc4F)CC3)nc2CN1C (configuration not stated) | 23.2 | –
CN1CCc2nc(NC3CC3)c(N3CCC(C(F)c4ccc(F)cc4F)CC3)nc2C1 (configuration not stated) | 9.4 | –

Compound | IC50 [2] [nM] | further results
COCC(=O)N1Cc2nc(N3CCC(Oc4ccc(F)cc4F)CC3)c(NCC(F)F)nc2CC1C (configuration not stated) | 23 | –
CC1c2nc(NCC(F)F)c(N3CCC(Oc4ccc(F)cc4F)CC3)nc2CCN1S(C)(=O)=O (configuration not stated) | 87 | –
CC(C)Nc1nc2c(nc1N1CCC(Oc3ccc(F)cc3F)CC1)CCN(C(=O)C1CCCO1)C2 (configuration not stated) | 17.9 | –
COc1ccc(OC2CCN(c3nc4c(nc3NC3CCC3)CN(C(C)=O)CC4)CC2)c(F)c1 | 19.9 | –
CC(=O)N1CCc2nc(NCC(F)F)c(N3CCC(Oc4ccc(F)cc4F)CC3)nc2C1 | 11.5 | –
CO[C@@H](C)C(=O)N1CCc2nc(NCC(F)F)c(N3CCC(Oc4ccc(F)cc4F)CC3)nc2C1 | 8.3 | –
CC(C)Nc1nc2c(nc1N1CCC(Oc3ccc(F)cc3F)CC1)CCN(S(=O)(=O)C(C)C)C2 | 149 | –
CC(C)Nc1nc2c(nc1N1CCC(C(F)c3ccc(F)cc3F)CC1)CCN(C(=O)N(C)C)C2 (configuration not stated) | 19.7 | –
COCC(=O)N1CCc2nc(NCC(F)F)c(N3CCC(Oc4ccc(F)cc4F)CC3)nc2C1C (configuration not stated) | 68 | –
CC(C)Nc1nc2c(nc1N1CCC(Oc3ccc(F)cc3F)CC1)CCN(C(=O)N(C)C)C2 | 10.4 | –
COc1ccc(OC2CCN(c3nc4c(nc3NC3CCC3)CCN(C(C)=O)C4)CC2)c(F)c1 | 12 | –
CC(C)Nc1nc2c(nc1N1CCC(Oc3ccc(F)cc3F)CC1)CN(C(=O)N(C)C)CC2 | 13.8 | –
COc1ccc(OC2CCN(c3nc4c(nc3NC3CCC3)CCN(C(=O)N(C)C)C4)CC2)c(F)c1 | 13.8 | –
CO[C@H](C)C(=O)N1CCc2nc(NCC(F)F)c(N3CCC(Oc4ccc(F)cc4F)CC3)nc2C1 | 6.6 | –
CC(=O)N1CCc2nc(NC(C)C)c(N3CCC(Oc4ccc(F)cc4F)CC3)nc2C1 | 9.5 | IC50 [1]: 73.7 nM
COc1ccc(OC2CCN(c3nc4c(nc3NC(C)C)CCN(C)C4)CC2)c(F)c1 | 26.6 | –
COc1ccc(OC2CCN(c3nc4c(nc3NC(C)C)CCN(C(=O)N(C)C)C4)CC2)c(F)c1 | 16.6 | –
CC(C)Nc1nc2c(nc1N1CCC(Oc3ccc(F)cc3F)CC1)CN(C(=O)C1CCCO1)CC2 (configuration not stated) | 19.5 | –
CC(C)Nc1nc2c(nc1N1CCC(Oc3ccc(F)cc3F)CC1)CCN(C(=O)N1CCCC1)C2 | 391 | –
COCCNC(=O)N1CCc2nc(NC(C)C)c(N3CCC(Oc4ccc(F)cc4F)CC3)nc2C1 | 14.9 | –
COc1ccc(OC2CCN(c3nc4c(nc3NC3CCC3)CN(C(=O)N(C)C)CC4)CC2)c(F)c1 | 32.5 | –
CC(C)Nc1nc2c(nc1N1CCC(C(F)c3ccc(F)cc3F)CC1)CN(C(=O)N(C)C)CC2 (configuration not stated) | 23.7 | –
